Measurements: ChEMBL document CHEMBL1136078, “Fundamental structure-activity relationships associated with a new structural class of respiratory syncytial virus inhibitor” (Bioorg Med Chem Lett, 2003)

Tests used:
HEp-2 = assay: Concentration that causes cytotoxicity to uninfected HEp-2 human lung carcinoma cell line; format: functional
[1] = test system: Respiratory syncytial virus; assay: Antiviral activity against respiratory syncytial virus in HEp-2 human lung carcinoma cell line; […]; format: functional, organism-based
[2] = test system: Respiratory syncytial virus; assay: Antiviral activity against respiratory syncytial virus in HEp-2 human lung carcinoma cell line; format: functional, organism-based

SMILES | CC50 (HEp-2) [µM] | EC50 [1] | EC50 [2] [µM]
COC(=O)Cn1c(Cn2nnc3ccccc32)nc2ccccc21 | 374 | Not Active | 
O=C(O)CCn1c(Cn2nnc3ccccc32)nc2ccccc21 | 184 |  | 18.1
O=C(O)Cn1c(Cn2nnc3ccccc32)nc2ccccc21 | 303 | Not Active | 
CC(C)Cn1c(Cn2nc3ccccc3n2)nc2ccccc21 | 106 |  | 47.5
CC(C)n1c(Cn2nc3ccccc3n2)nc2ccccc21 | 58 |  | 51.5
N#CCCn1c(Cn2nnc3ccccc32)nc2ccccc21 | 49.3 |  | 2.69
CC(C)CCn1c(Cn2nc3ccccc3n2)nc2ccccc21 | 13.5 |  | 0.44
c1ccc2[nH]c(Cn3nnc4ccccc43)nc2c1 | 164 |  | 31.1
CC(C)Cn1c(Cn2nnc3ccccc32)nc2ccccc21 | 15.5 | Not Active | 
O=C(Cn1c(Cn2nnc3ccccc32)nc2ccccc21)c1ccccc1 | 18 |  | 2.2
CC(C)CCCn1c(Cn2nnc3ccccc32)nc2ccccc21 | 24 |  | 0.19
NC(=O)CCn1c(Cn2nnc3ccccc32)nc2ccccc21 | 4.28 |  | 2.1
CN(C)CCCn1c(Cn2nnc3ccccc32)nc2ccccc21 | 197 |  | 1.1
CCCCn1c(Cn2nnc3ccccc32)nc2ccccc21 | 12 |  | 0.066
CC(O)CCn1c(Cn2nnc3ccccc32)nc2ccccc21 (stereo not given) | > 309 |  | 0.12
CC(C)n1c(Cn2nnc3ccccc32)nc2ccccc21 | 129 |  | 15.5

SMILES | CC50 (HEp-2) [µM] | EC50 [1] | EC50 [2] [µM]
CSCCn1c(Cn2nnc3ccccc32)nc2ccccc21 | 166 |  | 0.3
CC(C)(C)OC(=O)CCn1c(Cn2nnc3ccccc32)nc2ccccc21 | 9.98 |  | 4.31
CS(=O)(=O)CCn1c(Cn2nnc3ccccc32)nc2ccccc21 | 337 |  | 0.25
OC(Cn1c(Cn2nnc3ccccc32)nc2ccccc21)c1ccccc1 (stereo not given) | 37.6 |  | 0.59
CC(C)CCn1c(Cn2nnc3ccccc32)nc2ccccc21 | 39.9 |  | 0.1
CCN(CC)CCCn1c(Cn2nnc3ccccc32)nc2ccccc21 |  | Not Active | 
C[S+]([O-])CCn1c(Cn2nnc3ccccc32)nc2ccccc21 (stereo not given) | 56.4 |  | 0.43
OCCn1c(Cn2nnc3ccccc32)nc2ccccc21 | 205 |  | 7.7
CC(C)=CCn1c(Cn2nnc3ccccc32)nc2ccccc21 | 102 |  | 3.3
CCN(CC)OC(=O)Cn1c(Cn2nnc3ccccc32)nc2ccccc21 | 250 | Not Active | 
c1ccc(Cn2c(Cn3nnc4ccccc43)nc3ccccc32)cc1 | 9 |  | 10.5
CCN(CC)OC(=O)Cn1c(Cn2nc3ccccc3n2)nc2ccccc21 |  | Not Active | 
CN(C)CCCn1c(Cn2nc3ccccc3n2)nc2ccccc21 | 182 |  | 3.6
c1ccc(CCn2c(Cn3nnc4ccccc43)nc3ccccc32)cc1 | 2.6 |  | 0.77
CC(=O)CCn1c(Cn2nnc3ccccc32)nc2ccccc21 | 59 |  | 0.52
